Experimental data taken from ChEMBL document CHEMBL6078714, “Discovery of N-Trifluoromethylated Noscapines as Novel and Potent Agents for the Treatment of Glioblastoma” (J Med Chem, 2025).
Active and inactive are the calls of the source. No cut-off for these calls is given here.

Assays:
[1] = Toxicity in male BALB/c nude mouse xenografted with human U-118-MG cells assessed as metastasis in liver at 2.5 to 10 mg/kg, ip administered daily for 4 weeks by H and E staining based analysis; type: organism-based; conditions: in vivo, 672 h, dose 2.5-10 mg/kg
U-118-MG [2] = assay: Cell cycle arrest in human U-118-MG cells assessed as accumulation of cells at G2 phase at 3 uM incubated for 24 hrs by flow cytometric analysis (reference value: 30.6 %); type: functional
U-118-MG [3] = assay: Induction of apoptosis in human U-118-MG cells assessed as downregulation of Bcl-XL expression level at 1 to 40 uM incubated for 24 hrs by Western blot analysis; type: functional, cell-based; conditions: dose 1-40 µM
U-118-MG [4] = assay: Inhibition of cell migration in human U-118-MG cells assessed as decrease in number of migrating cells at 1 uM incubated for 24 hrs by transwell assay; type: functional, cell-based
U-118-MG [5] = assay: Induction of apoptosis in human U-118-MG cells assessed as apoptotic rate at 20 uM incubated for 24 hrs by Annexin V-FITC/PI staining based flow cytometric analysis relative to control; type: functional
U-118-MG [6] = assay: Cell cycle arrest in human U-118-MG cells assessed as accumulation of cells at S phase at 3 uM incubated for 24 hrs by flow cytometric analysis (reference value: 10.7 %); type: functional
U-118-MG [7] = assay: Induction of apoptosis in human U-118-MG cells assessed as downregulation of c-Myc expression level at 1 to 40 uM incubated for 24 hrs by Western blot analysis; type: functional, cell-based; conditions: dose 1-40 µM
U-118-MG [8] = assay: Cell cycle arrest in human U-118-MG cells assessed as accumulation of cells at G1 phase at 10 uM incubated for 24 hrs by flow cytometric analysis (reference value: 56.2 %); type: functional
U-118-MG [9] = assay: Antitumor activity against human U-118-MG cells xenografted in male BALB/c nude mouse assessed as tumor growth inhibition at 10 mg/kg, ip administered daily for 4 weeks relative to control; type: functional; conditions: 672 h, read-out: TGI
U-118-MG [10] = assay: Antitumor activity against human U-118-MG cells xenografted in male BALB/c nude mouse assessed as tumor growth inhibition at 2.5 mg/kg, ip administered daily for 4 weeks relative to control; type: functional; conditions: 672 h, read-out: TGI
[11] = Toxicity in male BALB/c nude mouse xenografted with human U-118-MG cells assessed as metastasis in lung at 2.5 to 10 mg/kg, ip administered daily for 4 weeks by H and E staining based analysis; type: organism-based; conditions: in vivo, 672 h, dose 2.5-10 mg/kg
U-118-MG [12] = assay: Inhibition of cell migration in human U-118-MG cells assessed as decrease in number of migrating cells at 0.1 uM incubated for 24 hrs by transwell assay; type: functional, cell-based
U-118-MG [13] = assay: Cytotoxicity against human U-118-MG cells assessed as reduction in cell viability at 0.1 to 10 uM incubated for 24 hrs; type: functional, cell-based; conditions: dose 0.1-10 µM
U-118-MG [14] = assay: Induction of apoptosis in human U-118-MG cells incubated for 24 hrs by Annexin V-FITC/PI staining based flow cytometric analysis; type: functional, cell-based; conditions: dose 3-40 µM
[15] = Bioavailability in Sprague-Dawley rat at 5 mg/kg, ip; type: ADME, organism-based; conditions: in vivo
U-118-MG [16] = assay: Antiproliferative activity against human U-118- MG cells assessed as inhibition of cell proliferation at 10 uM by crystal violet staining based analysis; type: functional
[17] = Toxicity in male BALB/c nude mouse xenografted with human U-118-MG cells assessed as body weight loss at 2.5 to 10 mg/kg, ip administered daily for 4 weeks; type: organism-based; conditions: in vivo, 672 h, dose 2.5-10 mg/kg

With COc1ccc2c(c1OC)C(=O)O[C@@H]2[C@H]1c2c(c(Br)c3c(c2OC)OCO3)CCN1C(F)(F)F the Activity [1] was “Non-toxic”, the Activity (U-118-MG [2]) was 31.7% and the Activity (U-118-MG [3]) was “Active”. For the same compound, the inhibition (U-118-MG [4]) was “Active; Superior Inhibitory Activity Compared To Noscapine And Tmz”, the Activity (U-118-MG [5]) was 23.7% and the Activity (U-118-MG [6]) was 10.4%. For the same compound, the Activity (U-118-MG [7]) was “Active”, the Activity (U-118-MG [8]) was 56.6% and the inhibition in vivo at 10 mg/kg (U-118-MG [9]) was 38.5%. The inhibition in vivo at 2.5 mg/kg (U-118-MG [10]) was 34.4%, the Activity [11] was “Non-toxic” and the inhibition (U-118-MG [12]) was “Active”. For the same compound, the Activity (U-118-MG [13]) was “inactive”, the Activity (U-118-MG [14]) was “Dose-dependent-effect” and the bioavailability [15] was 61.3%. The Activity (U-118-MG [16]) was “Active” and the Activity [17] was “Non-toxic”.
